Each structure is given as a SMILES string. Where “and” joins values, the source holds several entries; their conditions need not be identical. Equal entries are not always repeated.

A short description of series [1]: Hepatic and renal function analysis. Format: in vivo, female BALB/c mice. Particulars: mice after treatment. From the text:
Gastrointestinal toxicity evaluation
Nine female BALB/c mice were divided into four groups (n=3 each group) and were […]
saline (control) every day. Five days later, the mice were sacrificed and their blood was obtained for hepatic and renal function analysis. The stomach, duodenum, jejunum and ileum were taken and fixed in 4% paraformaldehyde solution for hematoxylin and eosin (H&E) staining. The histological sections were imaged using an optical microscope.
Student's t-test was used to determine significant differences between the two groups.
When p<0.05, there was a significant difference, and very significant differences between two groups were defined as p<0.01.

The nature of series [2]: Simulated intestinal digestion in bile-pancreatic juice (TG prodrug remaining, MG prodrug generated). Type of series: in vitro ADME, rat. The method, then:
(§1) Simulated intestinal digestion
(§2) Bile-pancreatic juice was obtained from the common bile duct of anesthetized rats, which contained bile as well as pancreatic juice as previously described. Then, 20 µL of emulsion was incubated with 180 µL bile-pancreatic juice at 37°C with gentle shaking to simulate intestinal digestion. Samples (20 µL) of the incubation solution were taken at regular intervals (0, 0.08, 0.25, 0.5, 1, 2, 3 h) and added to 180 µL of ACN to analyze the concentration of the TG prodrugs and the monoglyceride derivatives of DTX (MG prodrugs) by HPLC. The solubility of prodrugs in aqueous phase were also determined. […] 20 µL of aqueous phase were collected and the concentration of the TG prodrugs and MG prodrugs were determined as above. The fraction of TG-like prodrugs and MG-like prodrugs partitioning in mix micelle phase (aqueous phase) relative to those in raw digesta were calculated to evaluate the solubility of the prodrugs. At the same time, the particle sizes of mix micelles were measured by Malvern laser particle size analyzer. […]
(§3) In order to study the stability of linkers in circulation, TG prodrugs were incubated with rat plasma supplemented with lipoprotein lipase (LPL, 10000 IU/mL) in which TG prodrugs can be hydrolyzed into MG prodrugs rapidly. […] The concentration of TG, MG prodrugs and free DTX were determined by HPLC. […]

Series [3] in a line: Partition into mixed micellar phase and mixed micelle size after 3 h digestion. Type of series: in vitro ADME. Particulars: Sprague-Dawley, rat. The method, then:
as §1, §2, §3

A short description of series [4]: Stability of prodrugs in rat plasma supplemented with lipoprotein lipase. Type of series: in vitro ADME. The note with it: 12 h.
Series [5] in a line: In situ recirculating intestinal perfusion (absorption rate Ka, with or without orlistat). Particulars: rats.
Description: density of 10*10 5 cells per well and cultured for 24h. The cells were washed by PBS
for 3 times and then digested and counted. The cell pellet was resuspended by protein
removal reagent M solution. The cellular GSH concentration were then assayed using
Trace Glutathione Assay Kit (Njjcbio, Nanjing, China).
Sprague–Dawley (SD) rats (180-220g) and BalB/c mic (18-22g) were obtained from
the Laboratory Animal Center of Shenyang Pharmaceutical University (Shenyang,
To evaluate the intestinal permeability of the prodrugs, an in situ recirculating perfusion
study was applied as previously described [5] with slight modifications.
µg/mL using Krebs Ringer’s (KR) buffer solution as the perfusate. Male rats were
fasted for 12 h prior to the experiment and then were anesthetized with an i.p. injection
of urethane (1.0 g/kg). The rats were placed under an infrared lamp to maintain a normal
body temperature. The abdomen was opened along the midline with a 3~4-cm
longitudinal incision. The inlet tube was inserted at upper duodenum and the outlet tube
was inserted at the end of the ileum. […]
was recorded at the same time. […]
at a dosage of 240 mg/kg (i.g.) before the surgery. The dead volume was determined by
air blowing using the peristaltic pump. The absorption rate Ka was calculated as follows: […]
The DTX concentrations in the plasma of all test groups were determined by a validated […]
In another series the test system is 4T1 cells. Briefly: MTT cytotoxicity in 4T1 cells. Type of series: cell-based.
A further series deals with KB cells. Briefly: MTT cytotoxicity in KB cells. Format: cell-based.
Another series has as its system 4T1 xenograft tumors. The series can be described thus: In vivo antitumor effect (tumor volume, tumor burden, body weight, H&E of organs). Set-up: species or system female BALB/c mice. Particulars: 4T1 tumor bearing mice; po, 20 mg kg^−1 equivalent to DTX, every alternate day for 10 days. The method, then:
F௥௘௟ = AUCா௠௨௟௦௜௢௡ ∙Doseௌ௢௟/AUCௌ௢௟/Doseா௠௨௟௦௜௢௡
Fab = AUCp.o. ∙ Dosei.v./AUCi.v./Dosep.o.
Absorption mechanism and biodistribution of TG-mimetic prodrug
The PPa-S-S-TG was synthesized as scheme S2, the PPa-S-S-TG emulsion and its simulated intestinal digestion were implemented in accordance with the step of the TG-like DTX prodrug emulsion. Its reduction-responsibility was verified by incubation PBS with or without DTT. In brief, phosphate buffer solution (pH 7.4) (containing 30% ethanol (v/v)) with or without dithiothreitol (DTT) was used as the release media. The concentration of DTT was fixed at 10 mM. Then, 200 µL of the emulsions (PPa-S-S-TG) was incubated with 20 mL release media (reduction-sensitive or reduction-insensitive) at 37°C. At 0, 3, 12 h, 40 µL samples were taken and added to 160 µL of ACN for analysis. The content change of the PPa-S-S-TG was monitored by HPLC.
The PPa-S-S-TG and the PPa solution (10 mg/kg equivalent to PPa) were administrated to female BALB/c mice bearing the 4T1 cell line. At scheduled times the mice were sacrificed and the GITs, MLNs and tumors were taken out for fluorescence imaging by the Caliper IVIS ® Spectrum in vivo Imaging System. The intestinal tissue of PPa-S-S-TG group was then washed, fixed with 4% paraformaldehyde for 2 h, and dehydrated in 30% sucrose overnight. […]
was used as a control. […] Body weight and tumor volume were recorded every day. […]

Description for KB cells: 4T1 cells were cultured in RPMI 1640 medium with 10% FBS and KB cells were
cultured in high glucose DMEM medium with 10% FBS. All cells were maintained in a humidified atmosphere of 5% CO 2 at 37 °C. All the cell culture plastic product were obtained from Wuxi NEST Biotechnology Co., Ltd.
In vitro cytotoxicity and drug release in tumor cell
investigated in 4T1, KB and L02 cells. In brief, cells were added to 96-wells at a density of 5000 cells per well and cultured for 24 h and then the medium was discarded.
cells were incubated with different concentrations of DTX solution or prodrug
emulsions for 48 h or 72 h and cell viability was determined by MTT assay. The cells without any treatment were utilized as control (n=3 for each group).

In series [1] (AVERAGE of 3 animals), `CC(=O)O[C@@]12CO[C@@H]1C[C@H](O)[C@@]1(C)C(=O)[C@H](O)C3=C(C)[C@@H](OC(=O)[C@H](O)[C@@H](NC(=O)OC(C)(C)C)c4ccccc4)C[C@@](O)([C@@H](OC(=O)c4ccccc4)[C@H]21)C3(C)C` [DTX i.g.] registered an ALT of 41.6037 U/L, an AST of 150.819 U/L, a BUN of 8.409 mmol/L and a CR of 62.3087 µmol/L. In addition, in series [1] (individual animal), the ALT is 57.9809 U/L and 28.6275 U/L and 38.2028 U/L; the AST was 129.269 U/L and 163.103 U/L and 160.084 U/L; the BUN was 8.8262 mmol/L and 7.2013 mmol/L and 9.1982 mmol/L; the CR was 51.2097 µmol/L and 66.2585 µmol/L and 69.4579 µmol/L.

On to `CCCCCCCCCCCCCCCC(=O)OCC(COC(=O)CCCCCCCCCCCCCCC)OC(=O)C(CCC(=O)O[C@@H](C(=O)O[C@H]1C[C@@]2(O)[C@@H](OC(=O)c3ccccc3)[C@@H]3[C@]4(OC(C)=O)CO[C@@H]4C[C@H](O)[C@@]3(C)C(=O)[C@H](O)C(=C1C)C2(C)C)[C@@H](NC(=O)OC(C)(C)C)c1ccccc1)OC(=O)C(C)(C)C` (stereo partly shown) [DTX‐5C(Piv)‐TG], for which the “Intestinal digestion (rate) in bile-pancreatic juice” value in series [2] is on record as “poorest intestinal digestion rate”. Also, the “Amount of MG derivative generated” value in series [2] (Sprague-Dawley, rat, 3 h) is 74%. For the same compound, the “Partition of TG-like prodrug into the micellar phase” value in series [3] is listed as “about 40.2%”. Moreover, in series [4], the DTX released was 10%. Further, in series [5], the “Ka, fold increase in comparison with the DTX solution” value worked out at 1.15 fold.

In the case of `CCCCCCCCCCCCCCCC(=O)OCC(COC(=O)CCCCCCCCCCCCCCC)OC(=O)CCCC(=O)O[C@@H](C(=O)O[C@H]1C[C@@]2(O)[C@@H](OC(=O)c3ccccc3)[C@@H]3[C@]4(OC(C)=O)CO[C@@H]4C[C@H](O)[C@@]3(C)C(=O)[C@H](O)C(=C1C)C2(C)C)[C@@H](NC(=O)OC(C)(C)C)c1ccccc1` [DTX‐5C‐TG], the “Cytotoxicity (IC50 values)” value came to 0.3571 µg/mL with 4T1 cells (48 h), 0.1569 µg/mL in the series on 4T1 cells (72 h), 0.2265 µg/mL with KB cells (48 h) and 0.0882 µg/mL in the series with KB cells (72 h). For the same compound, the Tumor inhibition result with 4T1 xenograft tumors is on record as “effective tumor inhibition”. Further, in series [5], the “Ka, fold increase in comparison with the DTX solution” value came to 1.91 fold.

The record behind these values is article PMC6918103 (Advanced Science, 2019).
